In patent publication US8163737B2 (Vertex Pharmaceuticals Incorporated, priority 2006, dated 2012) one finds Ki and IC50 data, which are given here for 18 molecules.

Molecules are shown by their SMILES.

In experiment [1] the target is T1, CGRP receptor (SK-N-MC membrane) (Homo sapiens, UniProt O60894+Q16602).
T1 construct: Purified SK-N-MC membrane was purchased from Perkin Elmer; purchased Perkin Elmer; host or cells: SK-N-MC membrane
As to the kind of experiment: I125-CGRP binding displacement assay on purified SK-N-MC membrane. The method, boiled down:
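Displacement of I125-CGRP binding was measured by filtration and scintillation counting after 2 h room-temperature incubation with compound and SK-N-MC membranes (buffer pH 7.4, MgCl2, BSA, Tween). Percent displacement calculated against total binding and 1 uM cold CGRP nonspecific controls, then curve-fitted.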

The target in a further experiment is endogenous CGRP receptor (Homo sapiens, UniProt O60894+Q16602). Description: CGRP functional antagonism using SK-N-MC-BLA (4C10), β-lactamase transcriptional reporter assay. It is filed as cell-based. Conditions: SK-N-MC (4C10) cells, inhibition of β-lactamase expression in the presence of 200 pM CGRP. For orientation: In a reporter assay the amount or activity of a reporter protein is the signal.
Sequence of endogenous CGRP receptor (Q16602 23-461): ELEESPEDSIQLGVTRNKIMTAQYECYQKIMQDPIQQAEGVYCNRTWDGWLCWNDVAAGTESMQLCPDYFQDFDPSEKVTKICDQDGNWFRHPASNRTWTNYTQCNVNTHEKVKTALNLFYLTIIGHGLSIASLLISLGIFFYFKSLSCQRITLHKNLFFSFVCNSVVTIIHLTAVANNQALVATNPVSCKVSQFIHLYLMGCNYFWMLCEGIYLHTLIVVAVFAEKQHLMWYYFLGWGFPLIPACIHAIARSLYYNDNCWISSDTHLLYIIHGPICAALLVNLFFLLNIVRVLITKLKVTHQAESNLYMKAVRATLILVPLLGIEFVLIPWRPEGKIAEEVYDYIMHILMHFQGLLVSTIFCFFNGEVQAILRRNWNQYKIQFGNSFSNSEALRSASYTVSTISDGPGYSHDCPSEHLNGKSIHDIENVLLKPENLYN
Sequence of endogenous CGRP receptor (O60894 27-148): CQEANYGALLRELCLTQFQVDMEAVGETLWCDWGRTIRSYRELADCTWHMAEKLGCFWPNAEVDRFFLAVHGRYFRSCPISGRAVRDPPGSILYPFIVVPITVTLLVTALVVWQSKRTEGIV

T1 sequence (Q16602 23-461): as the sequence (Q16602 23-461) above
T1 sequence (O60894 27-148): as the sequence (O60894 27-148) above

The molecule `CCCCN1C(=O)[C@H](CC(=O)N2CCC(N3CCc4ccccc4NC3=O)CC2)SC1c1cccc(F)c1N1CCN(C(C)(C)C)CC1` (stereo partly drawn) [Compound 522] came in with an inhibition constant Ki in experiment [1] of under 1000 nM. Besides, the IC50 on endogenous CGRP receptor was under 1000 nM.
Molecule `Cc1cc(C2SC(CC(=O)N3CCC(N4Cc5ccccc5NC4=O)CC3)C(=O)N2CCC(C)C)cc2cn[nH]c12` (stereo not drawn) [Compound 282] yielded a Ki in experiment [1] of under 1000 nM. For the same molecule, the half-maximal inhibitory concentration (IC50) at endogenous CGRP receptor was under 1000 nM.
For `COc1ccc(C2SC(CC(=O)N3CCC(n4cc(-c5ccccc5)[nH]c4=O)CC3)C(=O)N2CCC(C)C)cc1OC` (stereo not drawn) [Compound 19], the Ki in experiment [1] is over 5000 nM. Besides, on endogenous CGRP receptor, the IC50 is over 5000 nM.
In experiment [1], `CC(C)CCN1C(=O)C(CC(=O)N2CCC(n3cc(-c4ccccc4)[nH]c3=O)CC2)SC1c1ccc(F)c(F)c1` (stereo not drawn) [Compound 127] showed a Ki of over 5000 nM. Also, the IC50 at endogenous CGRP receptor was 1000 to 5000 nM.
In experiment [1], `CC(C)CCN1C(=O)C(CC(=O)N2CCC(n3cc(-c4ccccc4)[nH]c3=O)CC2)SC12CCCCC2` (stereo not drawn) [Compound 195] had a Ki of over 5000 nM. On endogenous CGRP receptor, the IC50 lay in the range of 1000 to 5000 nM.
For `CC(C)(C)CCN1C(=O)[C@H](CC(=O)N2CCC(n3c(=O)[nH]c4ncccc43)CC2)SC1c1cccc(F)c1N1CCN(C(C)(C)C)CC1` (stereo partly drawn) [Compound 437], the inhibition constant Ki in experiment [1] was under 1000 nM. The IC50 at endogenous CGRP receptor was under 1000 nM.
Molecule `CN(C)C1CCN(c2c(F)cccc2[C@@H]2S[C@@H](CC(=O)N3CCC(n4c(=O)[nH]c5ncccc54)CC3)C(=O)N2CCC(C)(C)C)C1` (stereo partly drawn) [Compound 456] showed an inhibition constant Ki in experiment [1] of under 1000 nM. Besides, on endogenous CGRP receptor, the IC50 is 1000 to 5000 nM.
As for `CC(C)CCN1CCC(c2ncc(C3S[C@@H](CC(=O)N4CCC(N5CCc6ccccc6NC5=O)CC4)C(=O)N3CCC(C)(C)C)s2)CC1` (stereo partly drawn) [Compound 519], the Ki in experiment [1] was under 1000 nM. Moreover, the 50% inhibitory concentration (IC50) at endogenous CGRP receptor was under 1000 nM.
Consider `CC(C)(C)CCN1C(=O)[C@H](CC(=O)N2CCC(n3c(=O)[nH]c4ncccc43)CC2)SC1c1cccc(F)c1N1CCC(c2ccncc2)CC1` (stereo partly drawn) [Compound 556], for which, in experiment [1], the inhibition constant (Ki) is under 1000 nM. Also, on endogenous CGRP receptor, the IC50 is under 1000 nM.
`CC(C)(C)N1CCN(c2c(F)cccc2[C@@H]2S[C@@H](CC(=O)N3CCC(N4CCc5ccccc5NC4=O)CC3)C(=O)N2CCc2ccc(F)cc2)CC1` [Compound 504]: the Ki in experiment [1] was under 1000 nM. For the same molecule, the IC50 on endogenous CGRP receptor is under 1000 nM.
The molecule `CC(C)CCN1C(=O)C(CC(=O)N2CCC(n3c(=O)[nH]c4ccccc43)CC2)S[C@H]1c1ccccc1N1CCC(O)CC1` (stereo partly drawn) [Compound 290] registered an inhibition constant (Ki) in experiment [1] of under 1000 nM. In addition, on endogenous CGRP receptor, the half-maximal inhibitory concentration (IC50) was under 1000 nM.
The molecule `CC(C)(C)CCN1C(=O)[C@H](CC(=O)N2CCC(O)(c3ccc(Br)cc3)CC2)SC1c1cccc(F)c1N1CCN(C(C)(C)C)CC1` (stereo partly drawn) [Compound 457] showed an inhibition constant Ki in experiment [1] of under 1000 nM. At endogenous CGRP receptor, the IC50 is under 1000 nM.
For the molecule `CC(C)CC1SC(CC(=O)N2CCC(N3Cc4ccccc4NC3=O)CC2)C(=O)N1CC(F)(F)F` (stereo not drawn) [Compound 226], in experiment [1], the inhibition constant (Ki) was under 1000 nM. Besides, the IC50 at endogenous CGRP receptor lay in the range of 1000 to 5000 nM.
Turning to `CC(C)CN1C(=O)[C@H](CC(=O)N2CCC(n3c(=O)[nH]c4ncccc43)CC2)S[C@@H]1c1cccc(F)c1N1CCN(C(C)(C)C)CC1` [Compound 495], the inhibitory constant (Ki) in experiment [1] was under 1000 nM. Further, the 50% inhibitory concentration (IC50) on endogenous CGRP receptor is under 1000 nM.
In the case of `C[C@@H]1CN(c2c(F)cccc2[C@H]2S[C@@H](CC(=O)N3CCC(N4CCc5ccccc5NC4=O)CC3)C(=O)N2CCC(C)(C)C)C[C@H](C)N1` [Compound 474], the Ki in experiment [1] was under 1000 nM. Besides, at endogenous CGRP receptor, the IC50 was 1000 to 5000 nM.
The corresponding values for `CC(C)CCN1C(=O)C(CC(=O)N2CCC(N3Cc4ccccc4NC3=O)CC2)[S+]([O-])C1c1ccc(F)cc1F` (stereo not drawn) [Compound 66] are under 1000 nM and under 1000 nM.
On the same counts, the results for `CC(C)CCN1C(=O)C(CC(=O)N2CCC(N3Cc4ccccc4NC3=O)CC2)SC1c1cccc(Cl)c1` (stereo not drawn) [Compound 33] are under 1000 nM and under 1000 nM.
`CC(C)CN1C(=O)[C@H](CC(=O)N2CCC(N3CCc4ccccc4NC3=O)CC2)SC1c1cccc(F)c1N1CCN(C(C)(C)C)CC1` (stereo partly drawn) [Compound 494] yielded an inhibition constant Ki in experiment [1] of under 1000 nM. In addition, on endogenous CGRP receptor, the half-inhibitory concentration (IC50) is under 1000 nM.

The term Ki denotes the dissociation constant of the complex between target and ligand, obtained from inhibition or displacement. Low readings indicate tighter binding, high ones weaker binding. As usually defined, the IC50 is the concentration that inhibits the measured activity by half.
